Source: patent US6355799B1, “Substituted benzene compounds, process for their preparation, and herbicidal and defoliant compositions containing them” (ISK Americas Incorporated, priority 1997, dated 2002)

Tests used:
Format in all cases: in vivo
[1] = tested on: redroot pigweed (Amaranthus retroflexus, AMARE); test: Pre-emerge test, greenhouse herbicide activity screening; details: rating scale 0-100, 14 days after application
Method in brief: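 Compounds in acetone were track-sprayed at 187 l/ha, 15–1000 g ai/ha, onto sandy loam pots. Pre-emerge seeds were sown one day before spraying, with surface watering afterwards. Post-emerge plants were at the 2–3 leaf stage and sprayed with 0.25% v/v non-ionic surfactant. Injury was rated 0–100 at 14 days.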

[2] = tested on: barnyardgrass (Echinochloa crus-galli, ECHCG); test: as above; details: rating scale 0-100, 14 days after application
Method in brief: (§1)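 Compounds in acetone were track-sprayed at 15-1000 g ai/ha (187 l/ha) on sandy loam pots: pre-emerge one day after seeding, post-emerge at 2-3 leaf stage with 0.25% v/v non-ionic surfactant. Phytotoxicity was rated 14 days later on a 0 (no damage) to 100 (complete death) scale.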

[3] = tested on: common ragweed (Ambrosia artemisizfolia L., AMBEL); test: as above; details: rating scale 0-100, 14 days after application
Method in brief: as §1

[4] = tested on: green foxtail (Setaria viridis, SETVI); test: as above; details: rating scale 0-100, 14 days after application
Method in brief: as §1

[5] = tested on: ivyleaf morningglory (Ipomoea hederacea, IPOHE); test: as above; details: rating scale 0-100, 14 days after application
Method in brief: as §1

[6] = tested on: johnsongrass (Sorghum halepense, SORHA); test: as above; details: rating scale 0-100, 14 days after application
Method in brief: as §1

[7] = tested on: lambsquarters (Chenopodium album, CHEAL); test: as above; details: rating scale 0-100, 14 days after application
Method in brief: as §1

[8] = tested on: large crabgrass (Digitaria sanguinalis, DIGSA); test: as above; details: rating scale 0-100, 14 days after application
Method in brief: as §1

[9] = tested on: sicklepod (Cassia obtusifolia, CASOB); test: as above; details: rating scale 0-100, 14 days after application
Method in brief: as §1

[10] = tested on: velvetleaf (Abutilon theophrasti, ABUTH); test: as above; details: rating scale 0-100, 14 days after application
Method in brief: as §1

[11] = tested on: field corn (Zea mays L., var. Dekalb 535, CORN); test: Pre-emerge test, crop safety; details: rating scale 0-100, 14 days after application
Method in brief: (§2)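 Rating: 0–100 visual injury, 14 DAA. Application: acetone, 187 l/ha, 15–1000 g ai/ha, flat-fan track sprayer with nozzle 40–45 cm above soil or canopy. Post-emerge runs used 0.25% v/v surfactant on 2–3 leaf plants.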

[12] = tested on: upland rice (Oryza sp., var. Tebonnet, RICE); test: Pre-emerge test, crop safety; details: rating scale 0-100, 14 days after application
Method in brief: as §2

[13] = tested on: barnyardgrass (Echinochloa crus-galli, ECHCG); test: Post-emerge test, greenhouse herbicide activity screening; details: rating scale 0-100 (0 no damage, 100 complete death), 14 days after application
Method in brief: (§3)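 Plants grown in 10 cm pots of sandy loam mix received acetone-dissolved compounds through a moving flat-fan nozzle. Doses ranged from 15 to 1000 g ai/ha. Pre-emerge pots were seeded one day earlier, post-emerge pots 8–21 days earlier. Fourteen days on, each pot was graded 0–100 for damage.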

[14] = tested on: common ragweed (Ambrosia artemisizfolia L., AMBEL); test: as above; details: rating scale 0-100 (0 no damage, 100 complete death), 14 days after application
Method in brief: as §3

[15] = tested on: green foxtail (Setaria viridis, SETVI); test: as above; details: rating scale 0-100 (0 no damage, 100 complete death), 14 days after application
Method in brief: as §3

[16] = tested on: ivyleaf morningglory (Ipomoea hederacea, IPOHE); test: as above; details: rating scale 0-100 (0 no damage, 100 complete death), 14 days after application
Method in brief: as §3

[17] = tested on: johnsongrass (Sorghum halepense, SORHA); test: as above; details: rating scale 0-100 (0 no damage, 100 complete death), 14 days after application
Method in brief: as §3

[18] = tested on: lambsquarters (Chenopodium album, CHEAL); test: as above; details: rating scale 0-100 (0 no damage, 100 complete death), 14 days after application
Method in brief: as §3

[19] = tested on: large crabgrass (Digitaria sanguinalis, DIGSA); test: as above; details: rating scale 0-100 (0 no damage, 100 complete death), 14 days after application
Method in brief: as §3

[20] = tested on: redroot pigweed (Amaranthus retroflexus, AMARE); test: as above; details: rating scale 0-100 (0 no damage, 100 complete death), 14 days after application
Method in brief: as §3

[21] = tested on: sicklepod (Cassia obtusifolia, CASOB); test: as above; details: rating scale 0-100 (0 no damage, 100 complete death), 14 days after application
Method in brief: as §3

[22] = tested on: velvetleaf (Abutilon theophrasti, ABUTH); test: as above; details: rating scale 0-100 (0 no damage, 100 complete death), 14 days after application
Method in brief: as §3

[23] = tested on: field corn (Zea mays L., var. Dekalb 535, CORN); test: Post-emerge test, crop safety; details: rating scale 0-100 (0 no damage, 100 complete death), 14 days after application
Method in brief: as §1

[24] = tested on: upland rice (Oryza sp., var. Tebonnet, RICE); test: Post-emerge test, crop safety; details: rating scale 0-100 (0 no damage, 100 complete death), 14 days after application
Method in brief: as §1

## COc1c(Cl)cc(F)c(-n2c(=O)cc(C(F)(F)F)n(C)c2=O)c1CC(C)(Cl)C(=O)OCC(C)C (stereo not drawn) [14-40]
[1]; 63 g ai/ha
  Pre-emerge herbicidal activity, phytotoxicity rating AMARE: 100
[1]; 250 g ai/ha
  Pre-emerge herbicidal activity, phytotoxicity rating AMARE: 100
[2]; 63 g ai/ha
  Pre-emerge herbicidal activity, phytotoxicity rating ECHCG: 10
[2]; 250 g ai/ha
  Pre-emerge herbicidal activity, phytotoxicity rating ECHCG: 80
[3]; 63 g ai/ha
  Pre-emerge herbicidal activity, phytotoxicity rating AMBEL: 30
[3]; 250 g ai/ha
  Pre-emerge herbicidal activity, phytotoxicity rating AMBEL: 90
[4]; 63 g ai/ha
  Pre-emerge herbicidal activity, phytotoxicity rating SETVI: 50
[4]; 250 g ai/ha
  Pre-emerge herbicidal activity, phytotoxicity rating SETVI: 100
[5]; 63 g ai/ha
  Pre-emerge herbicidal activity, phytotoxicity rating IPOHE: 0
[5]; 250 g ai/ha
  Pre-emerge herbicidal activity, phytotoxicity rating IPOHE: 0
[6]; 63 g ai/ha
  Pre-emerge herbicidal activity, phytotoxicity rating SORHA: 0
[6]; 250 g ai/ha
  Pre-emerge herbicidal activity, phytotoxicity rating SORHA: 40
[7]; 63 g ai/ha
  Pre-emerge herbicidal activity, phytotoxicity rating CHEAL: 95
[7]; 250 g ai/ha
  Pre-emerge herbicidal activity, phytotoxicity rating CHEAL: 100
[8]; 63 g ai/ha
  Pre-emerge herbicidal activity, phytotoxicity rating DIGSA: 60
[8]; 250 g ai/ha
  Pre-emerge herbicidal activity, phytotoxicity rating DIGSA: 100
[9]; 63 g ai/ha
  Pre-emerge herbicidal activity, phytotoxicity rating CASOB: 0
[9]; 250 g ai/ha
  Pre-emerge herbicidal activity, phytotoxicity rating CASOB: 0
[10]; 63 g ai/ha
  Pre-emerge herbicidal activity, phytotoxicity rating ABUTH: 100
[10]; 250 g ai/ha
  Pre-emerge herbicidal activity, phytotoxicity rating ABUTH: 100
[11]; 63 g ai/ha
  Pre-emerge phytotoxicity rating, crop damage CORN: 0
[11]; 250 g ai/ha
  Pre-emerge phytotoxicity rating, crop damage CORN: 0
[12]; 63 g ai/ha
  Pre-emerge phytotoxicity rating, crop damage RICE: 20
[12]; 250 g ai/ha
  Pre-emerge phytotoxicity rating, crop damage RICE: 60
[13]; Rate 63 g ai/ha
  Post-emerge Herbicidal Activity, phytotoxicity rating ECHCG: 100
[13]; Rate 250 g ai/ha
  Post-emerge Herbicidal Activity, phytotoxicity rating ECHCG: 100
[14]; Rate 63 g ai/ha
  Post-emerge Herbicidal Activity, phytotoxicity rating AMBEL: 90
[14]; Rate 250 g ai/ha
  Post-emerge Herbicidal Activity, phytotoxicity rating AMBEL: 100
[15]; Rate 63 g ai/ha
  Post-emerge Herbicidal Activity, phytotoxicity rating SETVI: 85
[15]; Rate 250 g ai/ha
  Post-emerge Herbicidal Activity, phytotoxicity rating SETVI: 99
[16]; Rate 63 g ai/ha
  Post-emerge Herbicidal Activity, phytotoxicity rating IPOHE: 30
[16]; Rate 250 g ai/ha
  Post-emerge Herbicidal Activity, phytotoxicity rating IPOHE: 60
[17]; Rate 63 g ai/ha
  Post-emerge Herbicidal Activity, phytotoxicity rating SORHA: 20
[17]; Rate 250 g ai/ha
  Post-emerge Herbicidal Activity, phytotoxicity rating SORHA: 20
[18]; Rate 63 g ai/ha
  Post-emerge Herbicidal Activity, phytotoxicity rating CHEAL: 100
[18]; Rate 250 g ai/ha
  Post-emerge Herbicidal Activity, phytotoxicity rating CHEAL: 100
[19]; Rate 63 g ai/ha
  Post-emerge Herbicidal Activity, phytotoxicity rating DIGSA: 20
[19]; Rate 250 g ai/ha
  Post-emerge Herbicidal Activity, phytotoxicity rating DIGSA: 40
[20]; Rate 63 g ai/ha
  Post-emerge Herbicidal Activity, phytotoxicity rating AMARE: 100
[20]; Rate 250 g ai/ha
  Post-emerge Herbicidal Activity, phytotoxicity rating AMARE: 100
[21]; Rate 63 g ai/ha
  Post-emerge Herbicidal Activity, phytotoxicity rating CASOB: 20
[21]; Rate 250 g ai/ha
  Post-emerge Herbicidal Activity, phytotoxicity rating CASOB: 60
[22]; Rate 63 g ai/ha
  Post-emerge Herbicidal Activity, phytotoxicity rating ABUTH: 90
[22]; Rate 250 g ai/ha
  Post-emerge Herbicidal Activity, phytotoxicity rating ABUTH: 100
[23]; Rate 63 g ai/ha
  Post-emerge phytotoxicity rating CORN (crop damage): 35
[23]; Rate 250 g ai/ha
  Post-emerge phytotoxicity rating CORN (crop damage): 70
[24]; Rate 63 g ai/ha
  Post-emerge phytotoxicity rating RICE (crop damage): 15
[24]; Rate 250 g ai/ha
  Post-emerge phytotoxicity rating RICE (crop damage): 75
